These results are taken from patent US20240189289A1, “INHIBITORS OF EPHB3 SIGNALING” (The Brigham and Women`s Hospital, Inc., priority 2021, published 2024).

Read-outs that look alike come from different tables or passages of the source.

What all share (type): biochemical
The target of one experiment is T1, EphB4 (Homo sapiens, UniProt P54760).
T1 sequence (P54760 16-987): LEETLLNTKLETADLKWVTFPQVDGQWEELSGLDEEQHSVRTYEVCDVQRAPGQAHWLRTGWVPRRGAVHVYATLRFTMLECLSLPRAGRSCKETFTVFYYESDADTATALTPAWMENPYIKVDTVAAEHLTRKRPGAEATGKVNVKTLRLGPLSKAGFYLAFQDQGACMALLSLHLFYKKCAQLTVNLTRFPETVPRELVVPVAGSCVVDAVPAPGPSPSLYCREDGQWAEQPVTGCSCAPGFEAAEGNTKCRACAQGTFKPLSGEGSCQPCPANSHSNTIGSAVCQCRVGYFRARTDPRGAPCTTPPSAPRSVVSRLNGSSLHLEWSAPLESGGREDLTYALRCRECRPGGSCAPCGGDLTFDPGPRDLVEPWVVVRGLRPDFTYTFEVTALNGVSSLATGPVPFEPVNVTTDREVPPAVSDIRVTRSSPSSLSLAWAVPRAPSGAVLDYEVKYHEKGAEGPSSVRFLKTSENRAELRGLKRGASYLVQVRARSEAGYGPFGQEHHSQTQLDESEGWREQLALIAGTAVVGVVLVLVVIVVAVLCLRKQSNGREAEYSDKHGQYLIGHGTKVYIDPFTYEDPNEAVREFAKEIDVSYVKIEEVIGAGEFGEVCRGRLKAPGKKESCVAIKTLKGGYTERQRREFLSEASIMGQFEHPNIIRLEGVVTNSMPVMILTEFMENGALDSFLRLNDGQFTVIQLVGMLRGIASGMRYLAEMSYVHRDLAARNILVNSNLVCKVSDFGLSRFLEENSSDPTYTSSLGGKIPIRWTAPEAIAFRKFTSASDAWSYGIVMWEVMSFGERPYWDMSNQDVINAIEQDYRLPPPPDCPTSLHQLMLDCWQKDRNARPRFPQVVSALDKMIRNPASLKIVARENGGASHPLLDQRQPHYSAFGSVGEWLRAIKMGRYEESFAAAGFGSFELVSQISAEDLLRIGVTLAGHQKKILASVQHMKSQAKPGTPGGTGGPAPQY
Kind of experiment: Eph receptor kinase activity assay (radiometric), EphB4. Particulars: for remaining activity at 0.01 µM: 10 nM compound, read-out: EphB4 % act 10 nM; for remaining activity at 0.03 µM: 30 nM compound, read-out: EphB4 % act 30 nM; for remaining activity at 0.1 µM: 100 nM compound, read-out: EphB4 % act 100 nM; for IC50: Table 2, Example 12.

A further experiment concerns the target EphA4 (Homo sapiens, UniProt P54764). Kind of experiment: Eph receptor kinase activity assay (radiometric), EphA4. To be noted: for remaining activity at 0.01 µM: 10 nM compound, read-out: EphA4 % act 10 nM; for remaining activity at 0.03 µM: 30 nM compound, read-out: EphA4 % act 30 nM; for remaining activity at 0.1 µM: 100 nM compound, read-out: EphA4 % act 100 nM; for IC50: Table 2, Example 12.

The target in a further experiment is EphA2 (Homo sapiens, UniProt P29317). The experiment in a line: Eph receptor kinase activity assay (radiometric), EphA2. Particulars: for remaining activity at 0.01 µM: 10 nM compound, read-out: EphA2 % act 10 nM; for remaining activity at 0.03 µM: 30 nM compound, read-out: EphA2 % act 30 nM; for remaining activity at 0.1 µM: 100 nM compound, read-out: EphA2 % act 100 nM; for IC50: Table 2, Example 12.

A further experiment addresses T2, EphB3 (Homo sapiens, UniProt P54753).
T2 sequence (P54753 34-998): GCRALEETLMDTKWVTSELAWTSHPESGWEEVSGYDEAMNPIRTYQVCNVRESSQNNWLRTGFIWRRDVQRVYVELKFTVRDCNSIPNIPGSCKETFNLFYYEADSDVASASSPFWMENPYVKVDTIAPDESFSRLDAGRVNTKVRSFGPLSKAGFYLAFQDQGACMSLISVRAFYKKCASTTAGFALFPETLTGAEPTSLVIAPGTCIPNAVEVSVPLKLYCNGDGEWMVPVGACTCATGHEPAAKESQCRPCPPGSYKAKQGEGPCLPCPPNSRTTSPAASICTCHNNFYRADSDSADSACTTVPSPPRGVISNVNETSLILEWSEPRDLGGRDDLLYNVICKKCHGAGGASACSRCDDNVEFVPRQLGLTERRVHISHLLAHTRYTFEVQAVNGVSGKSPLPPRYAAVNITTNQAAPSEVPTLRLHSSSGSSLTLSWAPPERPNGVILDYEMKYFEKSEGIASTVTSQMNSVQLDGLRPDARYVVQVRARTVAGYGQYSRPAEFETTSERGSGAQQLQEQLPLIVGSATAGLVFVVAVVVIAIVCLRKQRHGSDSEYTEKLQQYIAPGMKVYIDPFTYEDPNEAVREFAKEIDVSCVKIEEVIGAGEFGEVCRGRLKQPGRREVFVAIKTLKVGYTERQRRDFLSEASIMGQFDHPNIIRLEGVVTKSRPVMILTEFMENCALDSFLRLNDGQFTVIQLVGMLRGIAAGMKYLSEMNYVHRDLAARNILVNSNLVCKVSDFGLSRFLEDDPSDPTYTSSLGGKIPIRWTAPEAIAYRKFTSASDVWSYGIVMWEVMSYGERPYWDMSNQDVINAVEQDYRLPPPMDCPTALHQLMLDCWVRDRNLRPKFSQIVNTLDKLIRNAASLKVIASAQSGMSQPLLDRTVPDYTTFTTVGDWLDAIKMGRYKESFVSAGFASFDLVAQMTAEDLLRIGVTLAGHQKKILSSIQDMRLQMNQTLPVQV
Kind of experiment: EphB3 radiometric kinase activity assay (33P ATP filter binding). Particulars: for remaining activity at 0.01 µM: 10 nM compound, read-out: EphB3 % act 10 nM; for remaining activity at 0.03 µM: 30 nM compound, read-out: EphB3 % act 30 nM; for remaining activity at 0.1 µM: 100 nM compound, read-out: EphB3 % act 100 nM. How it is done: EphB3 radiometric kinase activity assay. To study the EphB3 kinase activity, a radioactive filter binding assay using 33P ATP was performed as described at the […] International Centre for Kinase profiling. […] The mix was harvested onto P81 filter plates and counts were read on a Topcount NXT.

Where [1] appears, read: Table 2, Example 12, read-out: EphB3 (nM) IC50.

EphA4, sequence (P54764 20-986): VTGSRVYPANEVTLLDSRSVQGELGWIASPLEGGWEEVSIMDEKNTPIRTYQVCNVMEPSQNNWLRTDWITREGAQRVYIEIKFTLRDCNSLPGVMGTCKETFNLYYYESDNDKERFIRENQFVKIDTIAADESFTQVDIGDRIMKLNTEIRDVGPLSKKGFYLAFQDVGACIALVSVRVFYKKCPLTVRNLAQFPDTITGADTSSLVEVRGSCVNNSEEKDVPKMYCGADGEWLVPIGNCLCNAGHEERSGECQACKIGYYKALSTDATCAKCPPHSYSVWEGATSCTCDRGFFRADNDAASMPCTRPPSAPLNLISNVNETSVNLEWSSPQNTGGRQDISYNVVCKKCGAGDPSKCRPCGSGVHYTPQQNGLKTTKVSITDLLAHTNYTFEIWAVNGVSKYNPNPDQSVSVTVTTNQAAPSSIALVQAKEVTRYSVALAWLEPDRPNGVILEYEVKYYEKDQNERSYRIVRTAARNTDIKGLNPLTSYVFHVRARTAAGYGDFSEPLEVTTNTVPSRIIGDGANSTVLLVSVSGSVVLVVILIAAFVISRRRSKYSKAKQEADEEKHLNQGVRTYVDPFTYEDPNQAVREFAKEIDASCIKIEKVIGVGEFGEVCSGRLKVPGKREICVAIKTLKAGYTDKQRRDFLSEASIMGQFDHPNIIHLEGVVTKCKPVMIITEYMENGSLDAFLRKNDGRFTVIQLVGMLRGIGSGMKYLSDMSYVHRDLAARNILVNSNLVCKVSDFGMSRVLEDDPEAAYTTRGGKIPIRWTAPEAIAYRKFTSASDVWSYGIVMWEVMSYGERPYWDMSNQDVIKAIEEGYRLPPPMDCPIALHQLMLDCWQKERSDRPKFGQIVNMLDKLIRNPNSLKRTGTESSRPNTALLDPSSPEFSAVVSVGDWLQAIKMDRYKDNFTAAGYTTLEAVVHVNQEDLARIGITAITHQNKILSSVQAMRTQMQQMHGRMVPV
EphA2, sequence (P29317 24-976): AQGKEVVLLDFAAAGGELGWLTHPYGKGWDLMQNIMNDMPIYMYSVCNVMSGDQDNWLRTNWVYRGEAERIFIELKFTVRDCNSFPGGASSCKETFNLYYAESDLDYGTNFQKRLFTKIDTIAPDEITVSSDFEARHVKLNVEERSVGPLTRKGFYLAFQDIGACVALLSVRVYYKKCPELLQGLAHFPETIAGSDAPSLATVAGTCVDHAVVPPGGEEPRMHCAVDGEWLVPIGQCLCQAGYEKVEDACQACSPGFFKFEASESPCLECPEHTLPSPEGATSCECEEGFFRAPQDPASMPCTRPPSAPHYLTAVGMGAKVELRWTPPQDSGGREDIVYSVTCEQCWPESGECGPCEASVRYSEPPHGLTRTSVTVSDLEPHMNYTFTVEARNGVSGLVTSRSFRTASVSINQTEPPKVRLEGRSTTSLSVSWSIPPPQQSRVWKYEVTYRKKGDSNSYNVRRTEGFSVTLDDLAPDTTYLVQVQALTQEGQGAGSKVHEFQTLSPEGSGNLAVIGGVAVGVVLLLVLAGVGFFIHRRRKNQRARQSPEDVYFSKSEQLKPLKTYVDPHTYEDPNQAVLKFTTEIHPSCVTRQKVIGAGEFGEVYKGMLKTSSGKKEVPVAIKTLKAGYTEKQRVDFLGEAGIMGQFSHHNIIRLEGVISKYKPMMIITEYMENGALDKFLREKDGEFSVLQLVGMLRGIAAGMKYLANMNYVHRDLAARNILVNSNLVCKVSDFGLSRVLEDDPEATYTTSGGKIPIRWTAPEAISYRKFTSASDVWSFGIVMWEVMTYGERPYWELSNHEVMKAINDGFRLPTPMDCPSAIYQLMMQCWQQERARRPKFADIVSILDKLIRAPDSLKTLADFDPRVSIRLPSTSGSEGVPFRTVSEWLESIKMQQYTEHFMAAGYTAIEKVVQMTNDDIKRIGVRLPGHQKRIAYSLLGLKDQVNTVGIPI

By IC50 is commonly meant the concentration that inhibits the measured activity by half. As for `COc1ccccc1-c1ccc2ncc(C(=O)Nc3ccccc3Cl)n2c1` [compound 101, N-(2-Chlorophenyl)-6-(2-methoxyphenyl)imidazo[1,2-a]pyridine-3-carboxamide], the remaining activity at 0.01 µM was found to be 98.8% at EphB4, 100% at EphA4, 67.7% on EphA2 and 80.9% on EphB3. For the same compound, the remaining activity at 0.03 µM at EphB4 is 101%; on EphA4 it was 80.2%; at EphA2 it was 65.4%; at EphB3, 62%. In addition, the remaining activity at 0.1 µM at EphB4 is 82%; at EphA4, 74.5%; at EphA2 it was 77%; on EphB3, 52.7%. Besides, the IC50 on EphB4 was 675 nM; against EphA4, 297 nM; at EphA2, 315 nM; on EphB3 (setting [1]) it was 90 nM.

For `Cc1ccc(-c2ccc3ncc(C(=O)Nc4ccccc4Cl)n3c2)cc1` [compound 104, N-(2-Chlorophenyl)-6-(4-methylphenyl)imidazo[1,2-a]pyridine-3-carboxamide], the remaining activity at 0.01 µM on EphB4 came to 93.1%; on EphA4, 83.8%; at EphA2, 78.1%; at EphB3 it was 110%. Also, the remaining activity at 0.03 µM is 95.5% at EphB4, 62.8% at EphA4, 86% on EphA2 and 60.5% on EphB3. For the same compound, the remaining activity at 0.1 µM at EphB4 came to 98.4%; on EphA4, 57.8%; at EphA2 it was 55.9%; at EphB3, 55.9%.

For the compound `Cc1ccccc1-c1ccc2ncc(C(=O)Nc3ccccc3Cl)n2c1` [compound 106, N-(2-Chlorophenyl)-6-(2-methylphenyl)imidazo[1,2-a]pyridine-3-carboxamide], the remaining activity at 0.01 µM at EphB4 was 98.9%; at EphA4 it was 83.8%; at EphA2, 110%; at EphB3, 132%. The remaining activity at 0.03 µM on EphB4 was 106%; at EphA4 it was 58.3%; at EphA2 it was 78.9%; at EphB3, 93.8%. For the same compound, the remaining activity at 0.1 µM at EphB4 was found to be 110%; on EphA4, 55.1%; at EphA2, 72.7%; at EphB3 it was 63.5%. Also, the IC50 came out at 675 nM at EphB4; 110 nM against EphA4; 245 nM against EphA2; 130 nM on EphB3 (Example 14, read-out: IC50 (μM), EphB3 receptor kinase inhibitory activity); 182 nM at EphB3 (setting [1]).

In the case of `Cc1cccc(-c2ccc3ncc(C(=O)Nc4ccccc4Cl)n3c2)c1` [compound 105, N-(2-Chlorophenyl)-6-(3-methylphenyl)imidazo[1,2-a]pyridine-3-carboxamide], the remaining activity at 0.01 µM came to 103% on EphB4, 53.9% at EphA4, 105% at EphA2 and 121% on EphB3. The remaining activity at 0.03 µM was found to be 109% on EphB4, 40.9% at EphA4, 88.1% on EphA2 and 81.1% on EphB3. For the same compound, the remaining activity at 0.1 µM at EphB4 is 93.8%; on EphA4, 35.3%; at EphA2, 65.3%; at EphB3, 63.7%.
